These results are taken from PubChem BioAssay (NCI).

Test systems include 786-0 renal; NCI-H460 lung; OVCAR-8 ovarian; T-47D breast; TK-10 renal; HT29 colon; MOLT-4 leukemia; NCI-H226 lung; MDA-MB-231 breast; LOX IMVI melanoma; SK-MEL-5 melanoma; HCC-2998 colon; A549 NSCLC; DU-145 prostate; SF-539 CNS; CCRF-CEM leukemia; K-562 leukemia; HL-60(TB) leukemia; SR leukemia; HS 578T breast.
Assay in all cases: DTP human tumour cell line panel, 48 h

Each structure is given as a SMILES string.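 Each compound was tested at five concentrations against cells in 96-well plates for 48 hours. TGI denotes the concentration required for complete inhibition of growth.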

`CC1=NN(C(=O)CC(=O)Nc2ccccc2C)C(=O)C1N=Nc1ccc(S(=O)(=O)c2ccc(N=NC3C(=O)N(C(=O)CC(=O)Nc4ccccc4C)N=C3C)cc2)cc1` (stereo not given): the TGI in the test on 786-0 renal, in the test on NCI-H460 lung, with OVCAR-8 ovarian, with T-47D breast, with TK-10 renal and in the test with HT29 colon was above 100 µM each time. Also, the TGI in the test on MOLT-4 leukemia, in the test on NCI-H226 lung, in the test on MDA-MB-231 breast, in the test with LOX IMVI melanoma, in the test with SK-MEL-5 melanoma and in the test with HCC-2998 colon was above 100 µM each time. In addition, the TGI with A549 NSCLC, in the test with DU-145 prostate, in the test on SF-539 CNS, with CCRF-CEM leukemia, in the test on K-562 leukemia and in the test on HL-60(TB) leukemia was above 100 µM in each case. The TGI in the test with SR leukemia and in the test on HS 578T breast was above 100 µM each time.
Take `O=C(O)CN1CCNCCN(CC(=O)O)CCNCC1`: the TGI (in general, the concentration at which net growth stops) in the test with 786-0 renal is above 100 µM; in the test with NCI-H460 lung, above 50.5 µM; in the test on OVCAR-8 ovarian, above 100 µM; with T-47D breast, above 100 µM; in the test on TK-10 renal it was above 100 µM; with HT29 colon it was above 100 µM. Moreover, the TGI with MOLT-4 leukemia is above 100 µM; in the test with NCI-H226 lung, above 100 µM; in the test with MDA-MB-231 breast it was above 100 µM; in the test with LOX IMVI melanoma, above 100 µM; in the test with SK-MEL-5 melanoma it was 21.9 µM; with HCC-2998 colon it was above 100 µM. The TGI in the test with A549 NSCLC is above 100 µM; with DU-145 prostate, above 100 µM; in the test on SF-539 CNS it was above 100 µM; in the test on CCRF-CEM leukemia, above 100 µM; in the test with K-562 leukemia it was above 100 µM; in the test with HL-60(TB) leukemia, 15.2 µM. Besides, the figures for the TGI in the test with SR leukemia and with HS 578T breast were above 96.5 µM and above 100 µM, respectively.
On to `COc1ccc(-c2nc(N)c(C#N)c3c2CCSc2ccc(C)cc2-3)cc1OC`, for which the TGI in the test on 786-0 renal was above 61.1 µM; in the test on NCI-H460 lung, above 61.5 µM; with OVCAR-8 ovarian it was above 73.6 µM; with T-47D breast it was above 31.5 µM; with TK-10 renal, above 100 µM; in the test with HT29 colon, above 53.1 µM. For the same molecule, the TGI was 25.1 µM with MOLT-4 leukemia; above 70.9 µM in the test with NCI-H226 lung; 35.8 µM with MDA-MB-231 breast; above 50.2 µM in the test with LOX IMVI melanoma; 25.2 µM with SK-MEL-5 melanoma; above 57.8 µM in the test on HCC-2998 colon. In addition, the TGI is above 100 µM with A549 NSCLC; above 67.2 µM in the test on DU-145 prostate; 58.9 µM in the test on SF-539 CNS; 23.6 µM with CCRF-CEM leukemia; 13.7 µM with K-562 leukemia; 17.7 µM in the test on HL-60(TB) leukemia. Further, the figures for the concentration for total growth inhibition (TGI) with SR leukemia and with HS 578T breast were 18.1 µM and 52.9 µM, respectively.
For `COc1ccc(N2C(=O)CSC2c2cc3cc(Br)ccc3nc2Cl)cc1` (stereo not given), the TGI in the test with 786-0 renal, in the test with NCI-H460 lung, in the test on OVCAR-8 ovarian, in the test on T-47D breast, in the test with TK-10 renal and with HT29 colon was above 50 µM throughout. In addition, the TGI in the test on MOLT-4 leukemia, in the test on NCI-H226 lung, in the test on MDA-MB-231 breast, in the test with LOX IMVI melanoma, in the test with SK-MEL-5 melanoma and in the test on HCC-2998 colon was above 50 µM each time. Also, the TGI in the test on A549 NSCLC, in the test with DU-145 prostate, in the test on SF-539 CNS, in the test on CCRF-CEM leukemia, with K-562 leukemia and in the test on HL-60(TB) leukemia was above 50 µM in each case. Moreover, the TGI with SR leukemia and with HS 578T breast was above 50 µM each time.
As to `Nc1ccn([C@H]2CO[C@@H](CO)O2)c(=O)n1`, the TGI in the test on 786-0 renal, with NCI-H460 lung, with OVCAR-8 ovarian, in the test on T-47D breast, in the test on TK-10 renal and with HT29 colon was above 100 µM each time. In addition, the TGI was 49.5 µM in the test on MOLT-4 leukemia; above 100 µM in the test with NCI-H226 lung; above 100 µM in the test with MDA-MB-231 breast; above 100 µM in the test on LOX IMVI melanoma; above 100 µM in the test with SK-MEL-5 melanoma; above 100 µM in the test with HCC-2998 colon. The TGI in the test with A549 NSCLC was above 100 µM; in the test with DU-145 prostate it was above 22.6 µM; with SF-539 CNS, 68.4 µM; in the test with CCRF-CEM leukemia it was above 92 µM; in the test with K-562 leukemia, above 100 µM; with HL-60(TB) leukemia, above 67.2 µM. Moreover, the TGI with SR leukemia and in the test with HS 578T breast was above 100 µM throughout.
As for `COC(=O)[C@@]12CC[C@]1(C(=O)OC)C1C(C)=CC(=O)O[C@@]12C` (stereo not given in full), the TGI in the test with 786-0 renal, in the test on NCI-H460 lung, with OVCAR-8 ovarian, in the test with T-47D breast, with TK-10 renal and in the test with HT29 colon was above 100 µM in each case. The TGI in the test with MOLT-4 leukemia, in the test with NCI-H226 lung, with MDA-MB-231 breast, in the test with LOX IMVI melanoma, in the test on SK-MEL-5 melanoma and with HCC-2998 colon was above 100 µM throughout. Besides, the TGI with A549 NSCLC, in the test with DU-145 prostate, in the test on SF-539 CNS, in the test on CCRF-CEM leukemia, in the test on K-562 leukemia and with HL-60(TB) leukemia was above 100 µM throughout. Further, the TGI in the test with SR leukemia and in the test with HS 578T breast was above 100 µM throughout.
As for `CC(C)=CCC[C@](C)(O)[C@H]1CC[C@]2(C)[C@@H]1[C@H](O)C[C@@H]1[C@@]3(C)CC[C@H](O[C@@H]4O[C@H](CO)[C@@H](O)[C@H](O)[C@H]4O)C(C)(C)[C@@H]3CC[C@]12C`, the TGI in the test with 786-0 renal was determined as 36 µM; with NCI-H460 lung it was 30.2 µM; with OVCAR-8 ovarian, 33.6 µM; with T-47D breast, 34 µM; with TK-10 renal, 39.6 µM; with HT29 colon it was 32.5 µM. In addition, the TGI came out at 34.8 µM in the test with MOLT-4 leukemia; 34.6 µM in the test with NCI-H226 lung; 36.4 µM in the test on MDA-MB-231 breast; 91.5 µM in the test on LOX IMVI melanoma; 32.1 µM with SK-MEL-5 melanoma; 49.4 µM in the test with HCC-2998 colon. Besides, the TGI in the test with A549 NSCLC was 37.7 µM; with DU-145 prostate, 35.1 µM; in the test on SF-539 CNS it was 38.8 µM; with CCRF-CEM leukemia, 43.8 µM; with K-562 leukemia it was 38.1 µM; with HL-60(TB) leukemia, 45.8 µM. Further, the TGI in the test with SR leukemia is 28.8 µM; with HS 578T breast it was 47 µM.
For the molecule `O=C(CC(=O)N(C(=O)c1ccccc1)c1ccc(Cl)cc1)N/N=C\c1ccccc1O`, the TGI in the test on 786-0 renal, in the test on NCI-H460 lung, with OVCAR-8 ovarian, with T-47D breast, in the test on TK-10 renal and in the test with HT29 colon was above 100 µM throughout. Moreover, the TGI with MOLT-4 leukemia, in the test with NCI-H226 lung, in the test with MDA-MB-231 breast, in the test on LOX IMVI melanoma, in the test with SK-MEL-5 melanoma and in the test with HCC-2998 colon was above 100 µM throughout. Besides, the TGI with A549 NSCLC, in the test on DU-145 prostate, with SF-539 CNS, in the test on CCRF-CEM leukemia, in the test on K-562 leukemia and with HL-60(TB) leukemia was above 100 µM throughout. The results for the TGI in the test on SR leukemia and in the test with HS 578T breast were above 100 µM and 81.3 µM, respectively.
With `CCOC(=O)C1(Cc2ccccc2)Cc2cc3c(cc2C1=O)CCC3` (stereo not given), the TGI in the test on 786-0 renal, with NCI-H460 lung, in the test with OVCAR-8 ovarian, with T-47D breast, in the test with TK-10 renal and in the test on HT29 colon was above 100 µM throughout. Besides, the TGI in the test on MOLT-4 leukemia, in the test with NCI-H226 lung, with MDA-MB-231 breast, in the test with LOX IMVI melanoma, in the test on SK-MEL-5 melanoma and in the test with HCC-2998 colon was above 100 µM throughout. For the same molecule, the TGI in the test on A549 NSCLC, in the test with DU-145 prostate, in the test on SF-539 CNS, in the test with CCRF-CEM leukemia, with K-562 leukemia and in the test with HL-60(TB) leukemia was above 100 µM in each case. Moreover, the TGI with SR leukemia and in the test with HS 578T breast was above 100 µM each time.
As to `Oc1ccc2ccccc2c1-c1c(Nc2ccccc2)ccc2ccccc12`, the TGI was 34.2 µM in the test with 786-0 renal; 39.9 µM in the test on NCI-H460 lung; 33.8 µM in the test with OVCAR-8 ovarian; 39.5 µM in the test with T-47D breast; 32.1 µM in the test with TK-10 renal; above 53.5 µM in the test with HT29 colon. Besides, the TGI in the test on MOLT-4 leukemia turned out to be 46.4 µM; with NCI-H226 lung, 36.1 µM; in the test on MDA-MB-231 breast it was 28.1 µM; with LOX IMVI melanoma it was 48.5 µM; in the test with SK-MEL-5 melanoma, 29 µM; with HCC-2998 colon, 29.2 µM. In addition, the TGI with A549 NSCLC was 38.9 µM; with DU-145 prostate it was 32.3 µM; in the test with SF-539 CNS, 29.7 µM; with CCRF-CEM leukemia, 44.7 µM; in the test on K-562 leukemia, 41 µM; with HL-60(TB) leukemia it was 48.4 µM. In addition, the TGI with SR leukemia amounted to 51.6 µM; in the test with HS 578T breast, 41.1 µM.
As for `O=C1NCC2(CCN(Cc3ccccc3)CC2)N1`, the concentration for total growth inhibition (TGI) in the test with 786-0 renal, in the test with NCI-H460 lung, in the test with OVCAR-8 ovarian, in the test with T-47D breast, in the test on TK-10 renal and in the test with HT29 colon was above 100 µM throughout. The TGI in the test with MOLT-4 leukemia, with NCI-H226 lung, in the test with MDA-MB-231 breast, in the test on LOX IMVI melanoma, in the test on SK-MEL-5 melanoma and in the test on HCC-2998 colon was above 100 µM throughout. Moreover, the TGI with A549 NSCLC, with DU-145 prostate, in the test with SF-539 CNS, in the test with CCRF-CEM leukemia, in the test with K-562 leukemia and in the test on HL-60(TB) leukemia was above 100 µM each time. The total growth inhibition concentration (TGI) in the test on SR leukemia and with HS 578T breast was above 100 µM each time.
For the molecule `C[C@@H](C(=O)O)c1ccc(-c2ccccc2)c(F)c1`, the TGI in the test on 786-0 renal, in the test with NCI-H460 lung, in the test on OVCAR-8 ovarian, with T-47D breast, in the test on TK-10 renal and in the test with HT29 colon was above 100 µM in each case. The TGI in the test with MOLT-4 leukemia, with NCI-H226 lung, in the test on MDA-MB-231 breast, with LOX IMVI melanoma, with SK-MEL-5 melanoma and in the test with HCC-2998 colon was above 100 µM throughout. The TGI in the test on A549 NSCLC, in the test on DU-145 prostate, in the test with SF-539 CNS, in the test with CCRF-CEM leukemia, in the test on K-562 leukemia and with HL-60(TB) leukemia was above 100 µM throughout. In addition, the TGI with SR leukemia and with HS 578T breast was above 100 µM throughout.
